Experimental data published in BigSolDB 2.1.

CC1Cc2ccccc2N1NC(=O)c1ccc(Cl)c(S(N)(=O)=O)c1 (stereo not given)
solubility (mole fraction)
Details | in 2-butanone | in acetone | in acetonitrile | in cyclohexane | in ethanol | in ethyl acetate | in isopropanol | in methanol | in n-propanol | in toluene
278.15 K | 0.0155 | 0.0204 | 0.00184 | 1.28e-06 | 0.00383 | 0.000455 | 0.0012 | 0.00524 | 0.00285 | 4.36e-06
283.15 K | 0.0175 | 0.0228 | 0.00278 | 2.34e-06 | 0.00514 | 0.000769 | 0.00187 | 0.00676 | 0.00398 | 6.4e-06
288.15 K | 0.0198 | 0.0257 | 0.00391 | 3.75e-06 | 0.00709 | 0.00115 | 0.00279 | 0.00877 | 0.00531 | 1.08e-05
293.15 K | 0.0225 | 0.0288 | 0.00536 | 5.88e-06 | 0.00913 | 0.00165 | 0.00386 | 0.0115 | 0.00685 | 1.68e-05
298.15 K | 0.0255 | 0.0322 | 0.00714 | 9.3e-06 | 0.0116 | 0.00235 | 0.00535 | 0.0147 | 0.00884 | 2.54e-05
303.15 K | 0.0291 | 0.036 | 0.00953 | 1.45e-05 | 0.0148 | 0.00336 | 0.00732 | 0.0187 | 0.0114 | 3.62e-05
308.15 K | 0.0329 | 0.0402 | 0.0124 | 2.23e-05 | 0.0186 | 0.00464 | 0.00979 | 0.023 | 0.0143 | 5.21e-05
313.15 K | 0.0371 | 0.0445 | 0.0158 | 3.36e-05 | 0.0227 | 0.00638 | 0.013 | 0.0276 | 0.0177 | 7.52e-05
318.15 K | 0.0417 | 0.0495 | 0.0199 | 5.02e-05 | 0.0275 | 0.00855 | 0.0168 | 0.033 | 0.0219 | 0.000106
